Reference: patent US8415357B2 (Canbas Co., Ltd., priority 2007, dated 2013)

Test system: Jurkat cells
Assay: Adaptation to G2 cell cycle arrest (G1 increment) in X-ray pre-arrested Jurkat cells, flow cytometry
Assay type: cell-based, human
Conditions: Homo sapiens, Jurkat, 24 h, Table 2; concentration causing half-maximal increase of % cells in G1 phase (G1 increment); Jurkat pre-arrested by 10 Gy X-ray, 24 hours with compound
Procedure: Phenotype-based screening was used to measure the ability of compounds of the invention to cause adaptation to G2 cell cycle arrest in G2-arrested cells. Adaptation to G2 cell cycle arrest and re-entry into the cell cycle can result in death of the previously G2-arrested cell, or suppression (inhibition) of further proliferation of the previously G2-arrested cell. In a non-limiting embodiment, the ability to cause adaptation to G2 cell cycle arrest was measured by contacting cells in which G2 arrest had been induced by irradiation (e.g., gamma (γ) radiation or X-ray radiation), with compounds of the invention at various concentrations and, for each compound at each concentration, determining the percentage of cells that escaped G2 arrest and re-entered the cell cycle, by determining the percentage of cells in G1 phase. The IC50 value for each compound was calculated as the dosage (usually in μM) that caused half-maximal increase of the percentage of cells in G1 phase (the G1 increment) measured for that compound. Certain invention compounds were initially identified by phenotype-based screening of small molecule libraries for activity against G2-arrested cells as described above.
Jurkat cells (a human T cell lymphoma-derived cell line) were arrested at the G2 phase by X-ray irradiation at 10 Gy, and cultured for 24 hours in 10% fetal calf serum (FCS)/RPMI1640 at 37° C. with 5% CO2/air. (FCS was from Equitech-Bio, Kerrville, Tex., and RPMI1640 was from Sigma-Aldrich, St. Louis, Mo.) Test compounds were added to the medium at the indicated doses, and the cells were cultured under the conditions described above, for an additional 24 hours before harvesting.
Harvested cells were stained with Krishan's buffer (0.1% sodium citrate, 50 μg/ml propidium iodide, 20 μg/ml RNase A, 0.5% Nonidet P-40) and analyzed by flow cytometry (BD Biosciences, Franklin Lakes, N.J.) to identify the cell stage of each cell in the sample. Cells in G1 phase were identified by having […] (2N) DNA content.
The IC50 value for each compound was calculated as the dosage showing half maximal activity to induce the increase of the percentage of cells in G1 phase (the G1 increment). IC50 values were used to measure the activity of compounds and to determine structure-activity relationships.
Pre-arrested Jurkat cells were prepared as described in Example 1. Briefly, Jurkat cells were subjected to X-ray irradiation at a dose of 10 Gy, and cultured for 24 hours in 10% fetal calf serum (FCS)/RPMI1640 at 37° C. with 5% CO2/air, after which time cells were exposed to various concentrations of test compounds, and cultured under the conditions described above for an additional 24 hours before harvesting. Harvested cells were stained with Krishan's buffer (0.1% sodium citrate, 50 μg/ml propidium iodide, 20 μg/ml RNase A, 0.5% Nonidet P-40) and analyzed by flow cytometry (BD Biosciences, Franklin Lakes, N.J.) to identify the cell stage of each cell in the sample. Cells in G1 phase were identified by having […] (2N) DNA content.
The IC50 value for each compound was calculated as the dosage (concentration in μM) that caused half-maximal increase of the percentage of cells in G1 phase (the G1 increment) measured for that test compound. Table 1 below presents the structure, mass, 1H NMR values, and […] values for representative compounds.
The IC50 value for each compound was calculated as the dosage (concentration in μM) that caused half-maximal increase of the percentage of cells in G1 phase (the G1 increment) measured for that test compound. Table 2 below presents structures, IUPAC name, molecular formula, ID number (“SCID”), mass, 1H NMR values, and IC50 values for representative compounds. Table 3 presents structures, IUPAC name, molecular formula, ID number (“SCID”), mass, 1H NMR values, and IC50 values for further representative compounds.

In the case of `CC1=C(C)C(=O)N(Nc2cccc(-c3cccc(C(F)(F)F)c3)n2)C1=O` [Compound S01691, 3,4-dimethyl-1-({6-[3-(trifluoromethyl)phenyl](2-pyridyl)}amino)azoline-2,5-dione], the IC50 is reported as 0.625 µM.
Work on `CC1=C(C)C(=O)N(Nc2cc(CN3CCN(C(=O)c4ccccc4)CC3)c3ccc(Br)cc3n2)C1=O` [Compound S01699, 1-[(7-bromo-4-{[4-(phenylcarbonyl)piperazinyl]methyl}(2-quinolyl))amino]-3,4-dimethylazoline-2,5-dione] yielded an IC50 of 0.625 µM.
Work on `CCN(CC)C(=O)CCC1=C(C)C(=O)N(Nc2ccc(C(F)(F)F)c(Cl)n2)C1=O` [Compound S01711, 3-(1-{[6-chloro-5-(trifluoromethyl)(2-pyridyl)]amino}-4-methyl-2,5-dioxoazolin-3-yl)-N,N-diethylpropanamide] yielded an IC50 of 0.156 µM.
`CCOC(=O)C(CC1=C(C)C(=O)N(Nc2ccc(C(F)(F)F)c(Cl)n2)C1=O)C(=O)OCC` [Compound S01712, Diethyl 2-[(1-{[6-chloro-5-(trifluoromethyl)(2-pyridyl)]amino}-4-methyl-2,5-dioxoazolin-3-yl)methyl]propane-1,3-dioate] showed an IC50 of 0.156 µM.
With `CC1=C(C)C(=O)N(Nc2cc(Cl)c(C(F)(F)F)c(-c3ccccc3)n2)C1=O` [Compound S01734] the IC50 was 0.45 µM.
`CC1=C(C)C(=O)N(Nc2cc(C(F)(F)F)cc(Cl)n2)C1=O` [Compound S01737, 1-{[6-chloro-4-(trifluoromethyl)(2-pyridyl)]amino}-3,4-dimethylazoline-2,5-dione] was tested, and the IC50 was 0.312 µM.
In the case of `CC1=C(CCC(=O)NC(C)(C)C)C(=O)N(Nc2ccc(C(F)(F)F)c(Cl)n2)C1=O` [Compound S01758, N-(tert-butyl)-3-(1-{[6-chloro-5-(trifluoromethyl)(2-pyridyl)]amino}-4-methyl-2,5-dioxoazolin-3-yl)propanamide], the IC50 is reported as 0.156 µM.
For `CC1=C(CCC(=O)N(C)c2ccccc2)C(=O)N(Nc2ccc(C(F)(F)F)c(Cl)n2)C1=O` [Compound S01759, 3-(1-{[6-chloro-5-(trifluoromethyl)(2-pyridyl)]amino}-4-methyl-2,5-dioxoazolin-3-yl)-N-methyl-N-phenylpropanamide], the IC50 was 0.625 µM.
For `CC1=C(C)C(=O)N(Nc2ccc(C(F)(F)F)c(Cc3ccccc3)n2)C1=O` [Compound S01762, 3,4-dimethyl-1-{[6-benzyl-5-(trifluoromethyl)(2-pyridyl)]amino}azoline-2,5-dione], the IC50 was 0.625 µM.
With `CON(C)C(=O)CCC1=C(C)C(=O)N(Nc2ccc(C(F)(F)F)c(Cl)n2)C1=O` [Compound S01796, 3-(1-{[6-chloro-5-(trifluoromethyl)(2-pyridyl)]amino}-4-methyl-2,5-dioxoazolin-3-yl)-N-methoxy-N-methylpropanamide] the IC50 was 0.078 µM.
Work on `CC1=C(C)C(=O)N(Nc2cc(CN3CCN(C(=O)c4ccc(C)cc4C)CC3)c3ccc(Br)cc3n2)C1=O` [Compound S01800, 1-{[4-({4-[(2,4-dimethylphenyl)carbonyl]piperazinyl}methyl)-7-bromo (2-quinolyl)]amino}-3,4-dimethylazoline-2,5-dione] yielded an IC50 of 0.625 µM.
With `COc1ccc(C(=O)N2CCN(Cc3cc(NN4C(=O)C(C)=C(C)C4=O)nc4cc(Br)ccc34)CC2)cc1` [Compound S01801, 1-{[7-bromo-4-({4-[(4-methoxyphenyl)carbonyl]piperazinyl}methyl) (2-quinolyl)]amino}-3,4-dimethylazoline-2,5-dione] the IC50 was 0.625 µM.
For `CC(=O)N(c1ccc(C(F)(F)F)c(Cl)n1)N1C(=O)C(C)=C(CO)C1=O` [Compound S01820, N-[6-chloro-5-(trifluoromethyl)(2-pyridyl)]-N-[4-(hydroxymethyl)-3-methyl-2,5-dioxoazolinyl]acetamide], the IC50 was 0.625 µM.
For `CC1=C(C)C(=O)N(Nc2cc(CN3CCN(S(=O)(=O)c4ccccc4)CC3)c3ccc(Br)cc3n2)C1=O` [Compound S01822, 1-[(7-bromo-4-{[4-(phenylsulfonyl)piperazinyl]methyl}(2-quinolyl))amino]-3,4-dimethylazoline-2,5-dione], the IC50 was 0.625 µM.
`CCOC(=O)CCC1=C(C)C(=O)N(Nc2ccc(C(F)(F)F)c(Cl)n2)C1=O` [Compound S01861, Ethyl 3-(1-{[6-chloro-5-(trifluoromethyl)(2-pyridyl)]amino}-4-methyl-2,5-dioxoazolin-3-yl) propanoate] gave an IC50 of 0.05 µM.
With `CC1=C(C)C(=O)N(Nc2cc(CNC3CCN(C(=O)OC(C)(C)C)CC3)c3ccc(Br)cc3n2)C1=O` [Compound S01862, tert-butyl 4-[({2-[(3,4-dimethyl-2,5-dioxoazolinyl)amino]-7-bromo-4-quinolyl}methyl)amino]piperidinecarboxylate] the IC50 was 0.937 µM.
`CC1=C(C)C(=O)N(Nc2cc(CN3CCC(NC(=O)OC(C)(C)C)C3)c3ccc(Br)cc3n2)C1=O` (stereo not shown) [Compound S01864, N-[1-({2-[(3,4-dimethyl-2,5-dioxoazolinyl)amino]-7-bromo(4-quinolyl)}methyl)pyrrolidin-3-yl] (tert-butoxy)carboxamide] was tested, and the IC50 was 0.468 µM.
Work on `COC(=O)CCC1=C(C)C(=O)N(Nc2cc(CN3CCN(C(=O)OC(C)(C)C)CC3)c3ccc(Br)cc3n2)C1=O` [Compound S01865, Methyl 3-(1-{[4-({4-[(tert-butyl)oxycarbonyl]piperazinyl}methyl)-7-bromo (2-quinolyl)]amino}-4-methyl-2,5-dioxoazolin-3-yl)propanoate] yielded an IC50 of 0.312 µM.
Work on `CC1=C(C)C(=O)N(Nc2cc(CN3CCN(C(=O)c4ccc(F)cc4)CC3)c3ccc(Br)cc3n2)C1=O` [Compound S01877, 1-{[7-bromo-4-({4-[(4-fluorophenyl)carbonyl]piperazinyl}methyl) (2-quinolyl)]amino}-3,4-dimethylazoline-2,5-dione] yielded an IC50 of 0.468 µM.
Work on `CC1=C(C)C(=O)N(Nc2cc(CN3CCN(C(=O)c4ccccc4Cl)CC3)c3ccc(Br)cc3n2)C1=O` [Compound S01878, 1-{[7-bromo-4-({4-[(2-chlorophenyl)carbonyl]piperazinyl}methyl) (2-quinolyl)]amino}-3,4-dimethylazoline-2,5-dione] yielded an IC50 of 0.234 µM.
Work on `COc1ccccc1C(=O)N1CCN(Cc2cc(NN3C(=O)C(C)=C(C)C3=O)nc3cc(Br)ccc23)CC1` [Compound S01879, 1-{[7-bromo-4-({4-[(2-methoxyphenyl)carbonyl]piperazinyl}methyl) (2-quinolyl)]amino}-3,4-dimethylazoline-2,5-dione] yielded an IC50 of 0.078 µM.
`CC1=C(C)C(=O)N(Nc2cc(CN3CCN(C(=O)c4ccc(N(C)C)cc4)CC3)c3ccc(Br)cc3n2)C1=O` [Compound S01880, 1-({4-[(4-{[4-(dimethylamino)phenyl]carbonyl}piperazinyl)methyl]-7-bromo (2-quinolyl)}amino)-3,4-dimethylazoline-2,5-dione] gave an IC50 of 0.312 µM.
With `CNC(=O)CCC1=C(C)C(=O)N(Nc2ccc(C(F)(F)F)c(Cl)n2)C1=O` [Compound S01883, 3-(1-{[6-chloro-5-(trifluoromethyl)(2-pyridyl)]amino}-4-methyl-2,5-dioxoazolin-3-yl)-N-methylpropanamide] the IC50 was 0.234 µM.
Compound `COc1cccc(C(=O)N2CCN(Cc3cc(NN4C(=O)C(C)=C(C)C4=O)nc4cc(Br)ccc34)CC2)c1` [Compound S01925, 1-{[7-bromo-4-({4-[(3-methoxyphenyl)carbonyl]piperazinyl}methyl) (2-quinolyl)]amino}-3,4-dimethylazoline-2,5-dione] has an IC50 of 0.156 µM.
`CC1=C(C)C(=O)N(Nc2cc(CN3CCN(C4CCN(C(=O)OC(C)(C)C)CC4)CC3)c3ccc(Br)cc3n2)C1=O` [Compound S01928, tert-butyl 4-[4-({2-[(3,4-dimethyl-2,5-dioxoazolinyl)amino]-7-bromo-4-quinolyl}methyl)piperazinyl]piperidinecarboxylate] showed an IC50 of 0.938 µM.
